# Test results taken from patent publication US6548506B2, “Benzo[1,8]naphthyridine derivatives, their preparation and pharmaceutical compositions which comprise them” (Aventis Pharma S.A., priority 1998, dated 2003).
# Experiments:
# Format in all cases: in vivo
# [1] = 2-week topical application toxicity in rat; conditions: 2 weeks topical application b.i.d., composition at about 2, about 5 and about 10%
# [2] = tested on: Staphylococcus aureus ATCC 25923; test: Model of infection of the guinea-pig with Staphylococcus aureus ATCC 25923; conditions: about 2% in a cetomacrogol and benzyl alcohol formulation; guinea-pig infected with S. aureus ATCC 25923
# [3] = tested on: Staphylococcus aureus AS 5155; test: Model of experimental infection of the guinea pig with Staphylococcus aureus AS 5155; conditions: about 2%; guinea pig infected with S. aureus AS 5155, resistant to meticillin, MLSB and quinolones
# [4] = 2-week topical application to nasal mucous membrane of rabbit, toxicity; conditions: 2 weeks topical application b.i.d., composition at about 2%
compound,measurement,setting,value
"Cn1cc(C(=O)O)c(=O)c2cc3cc(F)c(N4CCN(c5ccc(F)cc5)CC4)cc3nc21 [Example 1, 7-Fluoro-8-[4-(4-fluorophenyl)piperazin-1-yl]-1-methyl-4-oxo-1,4-dihydrobenzo[b][1,8]-naphthyridine-3-carboxylic Acid]",toxic effect,[1],no toxic effect was observed
same,in vivo activity,[2],active
same,in vivo activity,[3],active
same,toxic effect,[4],no toxic effect was observed
